Patent US7105518B2, “Thiopyrane-4-ones as DNA protein kinase inhibitors” (priority 2001, dated 2006)
Read-outs that look alike come from different tables or passages of the source.

Tests used:
[1] = biological target: T1, Baculoviral recombinant GST-fused PI 3-kinase (p110α/p85α) (Homo sapiens, UniProt P42336); test: PI 3-kinase inhibition assay; format: biochemical
T1 construct: GST; made in house; host or cells: Sf9 insect cells (baculovirus)
Method: In order to assess the inhibitory action of the compounds against PI 3-kinase in vitro, the following assay was used to determine IC50 values.
PI 3-kinase (1 μl) was diluted in reaction buffer (89 μl of 50 mM Hepes pH 7.5, 150 mM NaCl, 0.1 mM Sodium Orthovanadate, containing 20 μg of phosphatidylinositol) and varying concentrations of inhibitor compound added. […] Reactions were incubated for a further 20 minutes at 37° C., before quenching with the addition of 400 μl of chloroform/methanol (1:1). Reactions were acidified by the addition of 200 μl of 1M HCl, before separation of the organic and aqueous phases by centrifugation at 10,000 g for 30 seconds. The organic phase was transferred to a fresh tube and washed twice with 150 μl of 1M hydrochloric acid/methanol (1:1), discarding the aqueous phase. The washed reaction product was then placed in a white 96-well plate with 100 μl of scintillation fluid and transferred to a TopCount NXT for scintillation counting. Counts per minute, following a one minute counting time, were recorded for each reaction. The inhibition of PI 3-kinase activity by compounds was calculated as described above for the DNA-PK assay.
(§1) The selectivity was determined by the following equation: […]

[2] = biological target: T2, ATM protein immunoprecipitated from HeLa cell nuclear extract (Homo sapiens, UniProt Q13315); test: ATM inhibition assay (GSTp53N66 serine 15 phosphorylation, chemiluminescence); format: biochemical; conditions: concentrations between 100 and 1 μM
T2 construct: ATM protein was immunoprecipitated from HeLa cell nuclear extract; endogenous in cells; host or cells: HeLa cell nuclear extract (immunoprecipitate)
Method: In order to assess the inhibitory action of the compounds against ATM in vitro, the following assay was used to determine IC50 values.
ATM protein was immunoprecipitated from HeLa cell nuclear extract using rabbit polyclonal antisera raised to the C-terminal ˜500 amino-acid residues of the human ATM protein. […] 10 μl of immunoprecipitated ATM in Buffer C (50 mM Hepes, pH 7.4, 6 mM MgCl2, 150 mM NaCl, 0.1 mM sodium orthovanadate, 4 mM MnCl2, 0.1 mM dithiothreitol, 10% glycerol) was added to 32.5 μl of buffer C containing 1 μg of the ATM substrate GSTp53N66 in a V-bottomed 96 well polypropylene plate. The GSTp53N66 substrate is the amino terminal 66 amino acid residues of human wild type p53 fused to glutathione S-transferase. […] Varying concentrations of inhibitor were then added. […] After 10 minutes of incubation at 37° C., the reactions were initiated by the addition of 5 μl of 50 μM Na-ATP. After 1 h with shaking at 37° C., 150 μl of phosphate buffered saline (PBS) was added to the reaction and the plate centrifuged at 1500 rpm for 10 minutes. 5 μl of the reaction was then transferred to a 96 well opaque white plate containing 45 μl of PBS to allow the GSTp53N66 substrate to bind to the plate wells. The plate was covered and incubated at room temperature for 1 h with shaking before discarding the contents. The plate wells were washed twice by the addition of PBS prior to the addition of 3% (w/v) bovine serum albumin (BSA) in PBS. The plate was incubated at room temperature for 1 h with shaking before discarding the contents and washing twice with PBS. To the wells, 50 μl of a 1:10, 000 dilution of primary phosphoserine-15 antibody (Cell Signaling Technology, #9284L) in 3% BSA/PBS was added to detect the phosphorylation event on the serine 15 residue of p53 elicited by the ATM kinase. […] The wells were then washed four times with PBS before the addition of chemiluminescence reagent (NEN Renaissance, NEL105). The plate was then shaken briefly, covered with a transparent plate seal and transferred to a TopCount NXT for chemiluminescent counting. Counts per second, following a one second counting time, were recorded for each reaction. The inhibition of ATM activity by compounds was calculated as described above for the DNA-PK assay.
as §1

[3] = biological target: T3, Mammalian DNA-PK, isolated from Hela cell nuclear extract (Homo sapiens, UniProt P78527); test: DNA-PK inhibition assay (33P-ATP, phosphocellulose filter, scintillation counting); format: biochemical; conditions: for inhibition at 1 µM: read-out: inhibition of DNA-PK at 1 μM; for inhibition at 2 µM: read-out: inhibition of DNA-PK at 2 μM, single concentration 2 μM
T3 construct: Mammalian DNA-PK, isolated from Hela cell nuclear extract; endogenous in cells; host or cells: HeLa cell nuclear extract
Method: In order to assess the inhibitory action of the compounds against DNA-PK in vitro, the following assay was used.
The total assay volume per well was 40 μl.
After 10 minutes of incubation at 30° C. the reactions were initiated by the addition of Na-ATP (50 μM final), ^33P-γATP and a 30mer double stranded DNA oligonucleotide (10 ng/μl) in a volume of 10 μl. Designated positive and negative reaction wells were done in combination with compound wells (unknowns) in order to calculate % enzyme activities. The plates were then shaken for 2 minutes and incubated at 30° C. for 45 minutes.
Following the incubation, the reactions were quenched by the addition of 50 μl 30% acetic acid to each well. The plates were then shaken for 5 minutes and the contents of each plate (80 μl from each well) transferred over to a 96 well Polyfiltronics filtration plate, containing P81-phosphocellulose membrane (TRADE MARK)(Whatman, UK). The solutions were vacuum pumped through the membrane and each well membrane washed four times using 300 μl of 15% acetic acid. The well membranes were then air dried and 20 μl of scintillant was added to each well.
The plates were transferred to a TopCount NXT (TRADE MARK) (Packard, UK) for scintillation counting. Values recorded are counts per minute (cpm) following a 1 minute counting time for each well.
The enzyme activity for each compound is then calculated using the following equation: […]
In Table 1 below, the results are IC50 values (the concentration at which 50% of the enzyme activity is inhibited). These are determined over a range of different concentrations, normally from 10 μM down to 0.01 μM. Such IC50 values are used as comparative values to identify increased compound potencies.

[4] = test system: mammalian cells in culture; conditions: literature; cited from earlier work
PI 3-kinase = conditions: literature, stated the same as for DNA-PK; cited from earlier work

T1 sequence (P42336 whole entry, species assumed, the tested form may be a part): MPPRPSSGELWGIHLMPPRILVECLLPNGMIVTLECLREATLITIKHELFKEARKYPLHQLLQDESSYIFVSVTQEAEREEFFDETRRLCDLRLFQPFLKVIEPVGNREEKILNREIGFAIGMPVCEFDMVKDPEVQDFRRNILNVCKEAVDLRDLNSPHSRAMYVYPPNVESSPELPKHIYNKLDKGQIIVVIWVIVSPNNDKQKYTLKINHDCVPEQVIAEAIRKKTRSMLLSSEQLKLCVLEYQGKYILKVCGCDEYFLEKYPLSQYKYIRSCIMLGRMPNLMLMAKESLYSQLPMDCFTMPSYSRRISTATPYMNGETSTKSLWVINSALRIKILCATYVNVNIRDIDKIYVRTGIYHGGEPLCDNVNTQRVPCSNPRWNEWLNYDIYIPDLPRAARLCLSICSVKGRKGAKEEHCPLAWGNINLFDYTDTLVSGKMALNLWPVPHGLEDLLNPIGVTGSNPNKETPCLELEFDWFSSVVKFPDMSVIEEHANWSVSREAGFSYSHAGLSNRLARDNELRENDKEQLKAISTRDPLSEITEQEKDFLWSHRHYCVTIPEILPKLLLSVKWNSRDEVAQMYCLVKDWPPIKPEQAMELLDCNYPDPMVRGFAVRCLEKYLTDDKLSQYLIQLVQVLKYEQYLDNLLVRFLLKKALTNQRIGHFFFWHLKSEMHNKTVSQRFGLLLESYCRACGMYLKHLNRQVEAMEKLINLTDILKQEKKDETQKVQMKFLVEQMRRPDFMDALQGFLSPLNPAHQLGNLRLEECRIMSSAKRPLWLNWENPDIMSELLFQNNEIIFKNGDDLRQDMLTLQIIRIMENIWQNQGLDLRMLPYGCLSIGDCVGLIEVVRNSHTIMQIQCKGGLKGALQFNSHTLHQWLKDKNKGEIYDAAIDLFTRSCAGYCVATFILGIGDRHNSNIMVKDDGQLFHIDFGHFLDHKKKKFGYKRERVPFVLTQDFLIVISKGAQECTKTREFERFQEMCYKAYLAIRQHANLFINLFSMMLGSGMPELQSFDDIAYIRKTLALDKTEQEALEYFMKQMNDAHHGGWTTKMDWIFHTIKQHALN
T1 sequence (P27986 whole entry partner, species assumed, the tested form may be a part): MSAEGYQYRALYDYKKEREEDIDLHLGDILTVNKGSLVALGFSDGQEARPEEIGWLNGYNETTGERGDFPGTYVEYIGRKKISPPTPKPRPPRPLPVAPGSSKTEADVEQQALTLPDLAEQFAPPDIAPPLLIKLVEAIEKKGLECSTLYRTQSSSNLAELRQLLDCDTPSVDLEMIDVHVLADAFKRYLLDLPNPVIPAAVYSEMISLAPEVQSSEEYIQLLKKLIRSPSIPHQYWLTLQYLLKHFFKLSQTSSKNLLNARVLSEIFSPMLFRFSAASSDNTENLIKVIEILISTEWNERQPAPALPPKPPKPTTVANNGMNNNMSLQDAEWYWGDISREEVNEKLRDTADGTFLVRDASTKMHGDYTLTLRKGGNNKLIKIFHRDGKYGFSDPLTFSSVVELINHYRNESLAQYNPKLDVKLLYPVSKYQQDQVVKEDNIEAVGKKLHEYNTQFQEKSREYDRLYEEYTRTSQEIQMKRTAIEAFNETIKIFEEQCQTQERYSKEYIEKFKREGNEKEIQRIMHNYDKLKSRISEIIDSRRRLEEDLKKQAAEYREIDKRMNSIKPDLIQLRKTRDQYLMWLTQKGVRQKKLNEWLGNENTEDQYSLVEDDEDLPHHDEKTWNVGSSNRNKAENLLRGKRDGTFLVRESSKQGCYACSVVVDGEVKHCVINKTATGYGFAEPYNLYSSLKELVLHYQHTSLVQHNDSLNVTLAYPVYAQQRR
T2 sequence (Q13315 whole entry): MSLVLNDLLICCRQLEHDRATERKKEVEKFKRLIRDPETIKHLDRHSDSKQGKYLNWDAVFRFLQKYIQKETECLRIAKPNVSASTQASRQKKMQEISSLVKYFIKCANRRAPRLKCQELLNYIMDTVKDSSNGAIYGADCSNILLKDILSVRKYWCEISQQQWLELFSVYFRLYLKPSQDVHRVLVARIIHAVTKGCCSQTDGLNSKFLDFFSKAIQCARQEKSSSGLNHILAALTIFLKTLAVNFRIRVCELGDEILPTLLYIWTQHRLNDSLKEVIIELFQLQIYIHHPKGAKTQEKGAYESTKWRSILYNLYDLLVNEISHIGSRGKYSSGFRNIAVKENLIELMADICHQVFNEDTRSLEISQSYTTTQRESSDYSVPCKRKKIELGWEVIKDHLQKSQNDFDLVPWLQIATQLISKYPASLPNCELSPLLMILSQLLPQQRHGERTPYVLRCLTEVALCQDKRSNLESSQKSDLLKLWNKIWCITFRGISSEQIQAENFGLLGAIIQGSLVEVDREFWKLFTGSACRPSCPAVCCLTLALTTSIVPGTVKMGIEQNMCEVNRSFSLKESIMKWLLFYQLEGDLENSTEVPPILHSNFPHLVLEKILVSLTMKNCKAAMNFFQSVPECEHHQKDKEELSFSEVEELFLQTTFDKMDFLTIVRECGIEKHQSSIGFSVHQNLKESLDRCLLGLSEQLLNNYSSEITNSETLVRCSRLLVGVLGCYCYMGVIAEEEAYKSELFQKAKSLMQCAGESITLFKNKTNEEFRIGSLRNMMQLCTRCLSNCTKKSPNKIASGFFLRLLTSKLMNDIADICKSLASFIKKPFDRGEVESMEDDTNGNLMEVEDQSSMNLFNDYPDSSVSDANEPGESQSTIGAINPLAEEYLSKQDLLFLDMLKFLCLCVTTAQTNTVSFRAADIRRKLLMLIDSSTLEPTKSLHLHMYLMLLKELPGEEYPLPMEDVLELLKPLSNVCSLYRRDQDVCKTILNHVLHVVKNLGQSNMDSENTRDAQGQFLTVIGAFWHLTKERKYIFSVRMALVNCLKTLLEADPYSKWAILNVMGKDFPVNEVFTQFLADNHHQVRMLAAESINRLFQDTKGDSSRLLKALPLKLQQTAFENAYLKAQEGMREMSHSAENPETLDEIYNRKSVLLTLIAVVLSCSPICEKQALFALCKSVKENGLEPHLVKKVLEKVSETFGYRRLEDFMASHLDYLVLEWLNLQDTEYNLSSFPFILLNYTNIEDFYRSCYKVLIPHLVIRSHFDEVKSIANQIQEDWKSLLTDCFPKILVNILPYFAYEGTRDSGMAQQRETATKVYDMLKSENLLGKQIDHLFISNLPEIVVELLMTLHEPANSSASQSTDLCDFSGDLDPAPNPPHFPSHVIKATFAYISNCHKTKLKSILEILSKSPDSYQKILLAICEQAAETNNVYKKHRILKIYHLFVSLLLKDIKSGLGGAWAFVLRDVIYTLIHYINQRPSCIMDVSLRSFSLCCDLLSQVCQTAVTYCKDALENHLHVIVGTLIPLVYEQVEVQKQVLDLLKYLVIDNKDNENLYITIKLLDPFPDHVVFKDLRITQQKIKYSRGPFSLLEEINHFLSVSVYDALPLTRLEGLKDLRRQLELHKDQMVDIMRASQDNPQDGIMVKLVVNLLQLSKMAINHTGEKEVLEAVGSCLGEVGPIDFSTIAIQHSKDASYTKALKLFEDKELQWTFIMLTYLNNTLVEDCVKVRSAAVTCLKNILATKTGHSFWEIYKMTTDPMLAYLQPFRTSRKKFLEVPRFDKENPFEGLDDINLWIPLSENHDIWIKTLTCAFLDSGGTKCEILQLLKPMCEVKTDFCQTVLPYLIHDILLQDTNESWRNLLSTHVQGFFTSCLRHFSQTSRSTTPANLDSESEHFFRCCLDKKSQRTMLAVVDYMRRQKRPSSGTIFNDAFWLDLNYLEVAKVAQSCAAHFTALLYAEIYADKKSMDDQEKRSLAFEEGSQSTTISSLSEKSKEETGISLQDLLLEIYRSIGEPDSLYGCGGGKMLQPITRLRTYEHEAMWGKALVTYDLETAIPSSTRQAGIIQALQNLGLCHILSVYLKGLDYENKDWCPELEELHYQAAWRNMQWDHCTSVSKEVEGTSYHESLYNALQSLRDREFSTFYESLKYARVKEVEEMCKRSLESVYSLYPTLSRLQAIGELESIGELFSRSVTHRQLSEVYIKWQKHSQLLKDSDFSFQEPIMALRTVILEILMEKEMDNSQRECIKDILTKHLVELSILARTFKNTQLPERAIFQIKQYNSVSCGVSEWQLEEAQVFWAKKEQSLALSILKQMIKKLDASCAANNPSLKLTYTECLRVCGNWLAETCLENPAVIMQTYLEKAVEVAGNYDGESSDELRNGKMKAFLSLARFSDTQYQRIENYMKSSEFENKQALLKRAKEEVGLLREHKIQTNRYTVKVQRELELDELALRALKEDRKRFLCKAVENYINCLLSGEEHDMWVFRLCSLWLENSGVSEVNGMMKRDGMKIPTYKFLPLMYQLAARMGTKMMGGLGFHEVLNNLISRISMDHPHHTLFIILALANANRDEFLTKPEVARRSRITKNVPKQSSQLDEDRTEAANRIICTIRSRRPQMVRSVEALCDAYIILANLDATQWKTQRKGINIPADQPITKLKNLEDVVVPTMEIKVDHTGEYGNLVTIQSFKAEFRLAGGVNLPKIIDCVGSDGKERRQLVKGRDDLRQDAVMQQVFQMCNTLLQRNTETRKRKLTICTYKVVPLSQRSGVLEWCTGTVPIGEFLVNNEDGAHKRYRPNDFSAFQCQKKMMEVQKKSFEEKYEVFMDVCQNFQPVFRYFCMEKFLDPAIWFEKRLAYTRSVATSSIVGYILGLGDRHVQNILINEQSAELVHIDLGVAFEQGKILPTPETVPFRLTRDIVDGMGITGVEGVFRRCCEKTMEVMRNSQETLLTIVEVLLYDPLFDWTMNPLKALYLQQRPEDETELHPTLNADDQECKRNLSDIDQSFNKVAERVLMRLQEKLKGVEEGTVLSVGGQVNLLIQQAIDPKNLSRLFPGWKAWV

SMILES	IC50 [3] [µM]	inhibition at 1 µM ([3]; single concentration 1 μM) [%]	inhibition at 2 µM [3] [%]	other results
O=c1cc(-c2ccccc2)sc(N2CCOCC2)c1 [Compound 1, 2-Morpholin-4-yl-6-phenyl-thiopyran-4-one]				melting point: 160 to 161 °C; IC50 [1]: 10 µM; IC50 [2]: > 100 µM
CC(C)(C)c1ccc(-c2cc(=O)cc(N3CCOCC3)s2)cc1 [Compound 2, 2-(4-tert-Butyl-phenyl)-6-morpholin-4-yl-thiopyran-4-one]				melting point: 172 to 173 °C; IC50 [1]: 40 µM; IC50 [2]: > 100 µM
COc1ccc(-c2cc(=O)cc(N3CCOCC3)s2)cc1 [Compound 3, 2-(4-Methoxy-phenyl)-6-morpholin-4-yl-thiopyran-4-one]				IC50 [1]: 8 µM; IC50 [2]: > 100 µM
O=c1cc(-c2ccc(Cl)cc2)sc(N2CCOCC2)c1 [Compound 4, 2-(4—Chloro-phenyl)-6-morpholin-4-yl-thiopyran-4-one]				IC50 [1]: 5 µM; IC50 [2]: > 100 µM
O=c1cc(-c2ccc(Br)cc2)sc(N2CCOCC2)c1 [Compound 5, 6-(4-Broinophenyl)-2-morpholin-4-yl-thiopyran-4-one]				melting point: 214 to 215 °C
O=c1cc(-c2cccc(Br)c2)sc(N2CCOCC2)c1 [Compound 6, 6-(3-Bromophenyl)-2-morpholin-4-yl-thiopyran-4-one]				melting point: 181 to 182 °C
O=c1cc(-c2ccc(-c3cccc(O)c3)cc2)sc(N2CCOCC2)c1 [Compound 14]	≤ 2	≥ 10	≥ 50	
O=c1cc(-c2cccc(-c3ccccc3-c3ccccc3)c2)sc(N2CCOCC2)c1 [Compound 30]	≤ 2		≥ 50	inhibition at 1 µM [3]: ≥ 10%
CC(=O)Nc1cccc(-c2cccc(-c3cc(=O)cc(N4CCOCC4)s3)c2)c1 [Compound 31]		≥ 10	≥ 50	
CC(=O)c1cccc(-c2cccc(-c3cc(=O)cc(N4CCOCC4)s3)c2)c1 [Compound 33]	≤ 2		≥ 50	inhibition at 1 µM [3]: ≥ 10%
O=c1cc(-c2cccc(-c3cccc(-c4ccccc4)c3)c2)sc(N2CCOCC2)c1 [Compound 35]	≤ 2		≥ 50	inhibition at 1 µM [3]: ≥ 10%
O=c1cc(-c2cccc(-c3cccc(CO)c3)c2)sc(N2CCOCC2)c1 [Compound 40]	≤ 2		≥ 50	inhibition at 1 µM [3]: ≥ 10%
O=c1cc(-c2cccc(-c3ccc(CO)cc3)c2)sc(N2CCOCC2)c1 [Compound 41]	≤ 2		≥ 50	inhibition at 1 µM [3]: ≥ 10%
O=c1cc(-c2cccc(-c3cccc(O)c3)c2)sc(N2CCOCC2)c1 [Compound 42]		≥ 10	≥ 50	
O=c1cc(-c2cccc(-c3ccc(O)cc3)c2)sc(N2CCOCC2)c1 [Compound 43]	≤ 2	≥ 10	≥ 50	
NCc1ccc(-c2cccc(-c3cc(=O)cc(N4CCOCC4)s3)c2)cc1 [Compound 46]	≤ 2		≥ 50	inhibition at 1 µM [3]: ≥ 10%
Nc1ccc(-c2cccc(-c3cc(=O)cc(N4CCOCC4)s3)c2)cc1 [Compound 48]	≤ 2	≥ 10	≥ 50	
Nc1cccc(-c2cccc(-c3cc(=O)cc(N4CCOCC4)s3)c2)c1 [Compound 49]	≤ 2	≥ 10	≥ 50	
CC(=O)Nc1ccccc1-c1cccc(-c2cc(=O)cc(N3CCOCC3)s2)c1 [Compound 51]	≤ 2	≥ 10	≥ 50	
O=c1cc(-c2ccc(-c3cccs3)cc2)sc(N2CCOCC2)c1 [Compound 57]	≤ 2	≥ 10	≥ 50	
O=c1cc(-c2ccc(-c3cccc4ccccc34)cc2)sc(N2CCOCC2)c1 [Compound 59]		≥ 10	≥ 50	
Cc1ccc(-c2cccc(-c3cc(=O)cc(N4CCOCC4)s3)c2)c2ccccc12 [Compound 63]	≤ 2	≥ 10	≥ 50	
O=c1cc(-c2cccc(-c3csc4ccccc34)c2)sc(N2CCOCC2)c1 [Compound 64]	≤ 2	≥ 10	≥ 50	
O=c1cc(-c2cccc(-c3cccc4ccccc34)c2)sc(N2CCOCC2)c1 [Compound 69]	≤ 2	≥ 10	≥ 50	
O=Cc1sccc1-c1cccc(-c2cc(=O)cc(N3CCOCC3)s2)c1 [Compound 70]	≤ 2	≥ 10	≥ 50	
O=c1cc(N2CCOCC2)oc2c(-c3ccccc3)cccc12 [LY294002, reference compound]	1.5			sensitisation of cells to the effects of IR [4]: weakly sensitise cells to the effects of IR; IC50 (PI 3-kinase): ~1 µM; IC50 [2]: > 100 µM
